From PMC11192927, “The potential of a novel enzyme-based surface plasmon resonance biosensor for direct detection of dopamine” (Scientific Reports, 2024)

Molecular target: laccase (CotA) (Bacillus sp. HR03, UniProt B9W2C5)
Experiment: biochemical

Sequence of laccase (CotA) (B9W2C5 1-513): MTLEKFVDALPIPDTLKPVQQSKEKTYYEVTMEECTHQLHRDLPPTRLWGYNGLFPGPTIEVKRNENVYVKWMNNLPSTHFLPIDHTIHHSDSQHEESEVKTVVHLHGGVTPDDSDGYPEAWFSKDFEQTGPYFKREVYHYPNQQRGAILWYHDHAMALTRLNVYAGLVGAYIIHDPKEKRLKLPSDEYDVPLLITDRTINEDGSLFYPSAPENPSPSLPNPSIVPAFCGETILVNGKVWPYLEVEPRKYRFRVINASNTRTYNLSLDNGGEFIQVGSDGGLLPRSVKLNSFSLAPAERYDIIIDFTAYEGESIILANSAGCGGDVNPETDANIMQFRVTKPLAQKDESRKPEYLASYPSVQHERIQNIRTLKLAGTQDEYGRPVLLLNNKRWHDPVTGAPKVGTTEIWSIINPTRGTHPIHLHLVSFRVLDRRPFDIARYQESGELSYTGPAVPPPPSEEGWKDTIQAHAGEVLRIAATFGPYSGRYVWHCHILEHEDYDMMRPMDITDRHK

Kd: 48.5 nM
Compound: NCCc1ccc(O)c(O)c1 [dopamine]
